Source: patent US20040253262A1, “Biological compositions and methods for treatment of lymphoma” (priority 2003, published 2004)

Tests used:
[1] = tested on: spontaneous lymphoma; assay: Inbred PBA mouse model of lymphoma, survival after treatment; format: in vivo; conditions: 36 at start
Experimental: A model based on inbred PBA mice which manifest a high incidence of tumor was used (Bailey et al., 1970, J Natl. Cancer Inst. 45(1):59-73). Mice six to eight weeks old were treated by the method as described in Shiyan Dongwu Yu Zhongliu Yanjiu (Experimental Animal & Tumor Research), April 2000, by Chinese Medical Technology Publisher.
In the first series, the mice in group AY received 0.3 ml of the oral composition of the invention per day. The mice in group NY received 0.3 ml per day of a composition comprising at a similar concentration the same strain of yeast which had not been activated and conditioned. The mice in group CTX received subcutaneous injection of cyclophosphamide at a dose of 30 mg per kg body weight per day. […] The experiment was carried out over a 30-day treatment period.
In the second series, the mice in group 2AY received 0.5 ml of the oral composition of the invention per day. The mice in group 2NY received 0.5 ml per day of a composition comprising the same strain of yeast which had not been activated and conditioned at a similar concentration. The mice in group 2CTX received subcutaneous injection of cyclophosphamide at a dose of 45 mg per kg body weight per day. […] The experiment was carried out over a 60-day treatment period.
After the 30-day or 60-day treatment, the mice were fed a normal diet and allowed to live under the same environment. The health and survival of the mice were observed and compared over 180 days.
Each group consisted of 36 mice at the beginning of the experiment (3 repeats). The total number of surviving mice in each group were counted at the end of every month up to 6 months after treatment stopped.

[2] = tested on: Burkitt's lymphoma cells; assay: Athymic nude mouse model with transplanted Burkitt's lymphoma cells, survival after treatment; format: in vivo; conditions: 36 at start
Experimental: A model based on transplantation of Burkitt's lymphoma cell in athymic nude mice was used (Gurtsevitch et al., 1988, Int J Cancer 15;41(1):87-95). The model was set up as described in Shiyan Dongwu Yu Zhongliu Yanjiu (Experimental Animal & Tumor Research), April 2000, by Chinese Medical Technology Publisher. Essentially, seven week old mice were injected intravenously each with 1×10^6 Burkitt's lymphoma cells.
Twenty-one days after the injection of lymphoma cells, the mice were divided into two series of five groups: one series received treatment for 30 days, the other series received treatment for 60 days. […] The mice in group A received saline orally. The mice in group B received subcutaneous injection of cyclophosphamide at a dose of 30 mg per kg body weight per day. Group C received subcutaneous injection of cyclophosphamide at a dose of 45 mg per kg body weight per day. The mice in group D received 0.3 ml of the oral composition per day. Group E received 0.5 ml of the oral composition per day.
After the 30-day or 60-day treatment, the mice were fed a normal diet and allowed to live under the same environment. The health and survival of the nude mice were observed and compared over 360 days.
Each group consisted of 36 mice at the beginning of the experiment (3 repeats). The total number of surviving mice in each group were counted at the end of every month up to 12 months after treatment stopped.

## O=P1(N(CCCl)CCCl)NCCCO1 (stereo not drawn) [cyclophosphamide]
[1]; 30 mg/kg per day per table head (45 mg/kg elsewhere in the source) s.c., 60-day treatment (group 2CTX), day 0 after treatment period
  total number of surviving mice: 36
[1]; 30 mg/kg per day per table head (45 mg/kg elsewhere in the source) s.c., 60-day treatment (group 2CTX), day 30 after treatment period
  total number of surviving mice: 36
[1]; 30 mg/kg per day per table head (45 mg/kg elsewhere in the source) s.c., 60-day treatment (group 2CTX), day 60 after treatment period
  total number of surviving mice: 29
[1]; 30 mg/kg per day per table head (45 mg/kg elsewhere in the source) s.c., 60-day treatment (group 2CTX), day 90 after treatment period
  total number of surviving mice: 21
[1]; 30 mg/kg per day per table head (45 mg/kg elsewhere in the source) s.c., 60-day treatment (group 2CTX), day 120 after treatment period
  total number of surviving mice: 14
[1]; 30 mg/kg per day per table head (45 mg/kg elsewhere in the source) s.c., 60-day treatment (group 2CTX), day 150 after treatment period
  total number of surviving mice: 14
[1]; 30 mg/kg per day per table head (45 mg/kg elsewhere in the source) s.c., 60-day treatment (group 2CTX), day 180 after treatment period
  total number of surviving mice: 8
[1]; 30 mg/kg per day s.c., 30-day treatment, day 0 after treatment period
  total number of surviving mice: 36
[1]; 30 mg/kg per day s.c., 30-day treatment, day 30 after treatment period
  total number of surviving mice: 33
[1]; 30 mg/kg per day s.c., 30-day treatment, day 60 after treatment period
  total number of surviving mice: 27
[1]; 30 mg/kg per day s.c., 30-day treatment, day 90 after treatment period
  total number of surviving mice: 19
[1]; 30 mg/kg per day s.c., 30-day treatment, day 120 after treatment period
  total number of surviving mice: 17
[1]; 30 mg/kg per day s.c., 30-day treatment, day 150 after treatment period
  total number of surviving mice: 0
[1]; 30 mg/kg per day s.c., 30-day treatment, day 180 after treatment period
  total number of surviving mice: 0
[2]; 30 mg/kg per day s.c. (group B), 30-day treatment, day 0 after treatment period
  total number of surviving mice: 36
[2]; 30 mg/kg per day s.c. (group B), 30-day treatment, day 30 after treatment period
  total number of surviving mice: 33
[2]; 30 mg/kg per day s.c. (group B), 30-day treatment, day 60 after treatment period
  total number of surviving mice: 24
[2]; 30 mg/kg per day s.c. (group B), 30-day treatment, day 90 after treatment period
  total number of surviving mice: 14
[2]; 30 mg/kg per day s.c. (group B), 30-day treatment, day 120 after treatment period
  total number of surviving mice: 5
[2]; 30 mg/kg per day s.c. (group B), 30-day treatment, day 150 after treatment period
  total number of surviving mice: 3
[2]; 30 mg/kg per day s.c. (group B), 30-day treatment, day 180 after treatment period
  total number of surviving mice: 1
[2]; 30 mg/kg per day s.c. (group B), 30-day treatment, day 210 after treatment period
  total number of surviving mice: 0
[2]; 30 mg/kg per day s.c. (group B), 30-day treatment, day 240 after treatment period
  total number of surviving mice: 0
[2]; 30 mg/kg per day s.c. (group B), 30-day treatment, day 270 after treatment period
  total number of surviving mice: 0
[2]; 30 mg/kg per day s.c. (group B), 30-day treatment, day 300 after treatment period
  total number of surviving mice: 0
[2]; 30 mg/kg per day s.c. (group B), 30-day treatment, day 330 after treatment period
  total number of surviving mice: 0
[2]; 30 mg/kg per day s.c. (group B), 30-day treatment, day 360 after treatment period
  total number of surviving mice: 0
[2]; 30 mg/kg per day s.c. (group B), 60-day treatment, day 0 after treatment period
  total number of surviving mice: 35
[2]; 30 mg/kg per day s.c. (group B), 60-day treatment, day 30 after treatment period
  total number of surviving mice: 35
[2]; 30 mg/kg per day s.c. (group B), 60-day treatment, day 60 after treatment period
  total number of surviving mice: 33
[2]; 30 mg/kg per day s.c. (group B), 60-day treatment, day 90 after treatment period
  total number of surviving mice: 24
[2]; 30 mg/kg per day s.c. (group B), 60-day treatment, day 120 after treatment period
  total number of surviving mice: 19
[2]; 30 mg/kg per day s.c. (group B), 60-day treatment, day 150 after treatment period
  total number of surviving mice: 9
[2]; 30 mg/kg per day s.c. (group B), 60-day treatment, day 180 after treatment period
  total number of surviving mice: 5
[2]; 30 mg/kg per day s.c. (group B), 60-day treatment, day 210 after treatment period
  total number of surviving mice: 2
[2]; 30 mg/kg per day s.c. (group B), 60-day treatment, day 240 after treatment period
  total number of surviving mice: 0
[2]; 30 mg/kg per day s.c. (group B), 60-day treatment, day 270 after treatment period
  total number of surviving mice: 0
[2]; 30 mg/kg per day s.c. (group B), 60-day treatment, day 300 after treatment period
  total number of surviving mice: 0
[2]; 30 mg/kg per day s.c. (group B), 60-day treatment, day 330 after treatment period
  total number of surviving mice: 0
[2]; 30 mg/kg per day s.c. (group B), 60-day treatment, day 360 after treatment period
  total number of surviving mice: 0
[2]; 45 mg/kg per day s.c. (group C), 30-day treatment, day 0 after treatment period
  total number of surviving mice: 35
[2]; 45 mg/kg per day s.c. (group C), 30-day treatment, day 30 after treatment period
  total number of surviving mice: 35
[2]; 45 mg/kg per day s.c. (group C), 30-day treatment, day 60 after treatment period
  total number of surviving mice: 27
[2]; 45 mg/kg per day s.c. (group C), 30-day treatment, day 90 after treatment period
  total number of surviving mice: 21
[2]; 45 mg/kg per day s.c. (group C), 30-day treatment, day 120 after treatment period
  total number of surviving mice: 17
[2]; 45 mg/kg per day s.c. (group C), 30-day treatment, day 150 after treatment period
  total number of surviving mice: 11
[2]; 45 mg/kg per day s.c. (group C), 30-day treatment, day 180 after treatment period
  total number of surviving mice: 4
[2]; 45 mg/kg per day s.c. (group C), 30-day treatment, day 210 after treatment period
  total number of surviving mice: 2
[2]; 45 mg/kg per day s.c. (group C), 30-day treatment, day 240 after treatment period
  total number of surviving mice: 1
[2]; 45 mg/kg per day s.c. (group C), 30-day treatment, day 270 after treatment period
  total number of surviving mice: 0
[2]; 45 mg/kg per day s.c. (group C), 30-day treatment, day 300 after treatment period
  total number of surviving mice: 0
[2]; 45 mg/kg per day s.c. (group C), 30-day treatment, day 330 after treatment period
  total number of surviving mice: 0
[2]; 45 mg/kg per day s.c. (group C), 30-day treatment, day 360 after treatment period
  total number of surviving mice: 0
[2]; 45 mg/kg per day s.c. (group C), 60-day treatment, day 0 after treatment period
  total number of surviving mice: 34
[2]; 45 mg/kg per day s.c. (group C), 60-day treatment, day 30 after treatment period
  total number of surviving mice: 34
[2]; 45 mg/kg per day s.c. (group C), 60-day treatment, day 60 after treatment period
  total number of surviving mice: 34
[2]; 45 mg/kg per day s.c. (group C), 60-day treatment, day 90 after treatment period
  total number of surviving mice: 27
[2]; 45 mg/kg per day s.c. (group C), 60-day treatment, day 120 after treatment period
  total number of surviving mice: 19
[2]; 45 mg/kg per day s.c. (group C), 60-day treatment, day 150 after treatment period
  total number of surviving mice: 12
[2]; 45 mg/kg per day s.c. (group C), 60-day treatment, day 180 after treatment period
  total number of surviving mice: 7
[2]; 45 mg/kg per day s.c. (group C), 60-day treatment, day 210 after treatment period
  total number of surviving mice: 3
[2]; 45 mg/kg per day s.c. (group C), 60-day treatment, day 240 after treatment period
  total number of surviving mice: 0
[2]; 45 mg/kg per day s.c. (group C), 60-day treatment, day 270 after treatment period
  total number of surviving mice: 0
[2]; 45 mg/kg per day s.c. (group C), 60-day treatment, day 300 after treatment period
  total number of surviving mice: 0
[2]; 45 mg/kg per day s.c. (group C), 60-day treatment, day 330 after treatment period
  total number of surviving mice: 0
[2]; 45 mg/kg per day s.c. (group C), 60-day treatment, day 360 after treatment period
  total number of surviving mice: 0
